System: human breast-cancer-derived cell line T47D
Assay: Survival rate by ATP assay (CellTiter-Glo) and number of spheroids on NanoCulture plate
Format: cell-based
Conditions: trastuzumab 10 μg/mL, paclitaxel 6.0 μg/mL, 7 days after medicine was added, expected effects confirmed in b72 (FIG. 8, FIG. 9)
Method: A human breast-cancer-derived cell line T47D was suspended in a culture medium (NCM-M made by SCIVAX Co., Ltd.), and seeded on a NanoCulture (registered mark) plate (made by SCIVAX Co., Ltd., 96-well plate, material of concavo-convex structure surface: cyclic-olefin polymer (COP), planar shape of concavo-convex structure: regular hexagon, width between unit structures (line width): 700 nm, minimum internal diameter of unit structure: 3 μm, and depth: 1 μm) at 1×10^4 cells/well, and incubated at 37° C. and 5% CO2.
The survival rate of the cell on the tenth day (the seventh day after medicines were added) was evaluated based on the assay of the ATP in the cell using CellTiter-Glo Luminescent Cell Viability Assay (Promega KK.) and calculated as a relative value, and the results are shown in FIG. 8.

CC(=O)O[C@H]1C(=O)[C@@]2(C)[C@H]([C@H](OC(=O)c3ccccc3)[C@]3(O)C[C@H](OC(=O)[C@H](O)[C@@H](NC(=O)c4ccccc4)c4ccccc4)C(C)=C1C3(C)C)[C@]1(OC(C)=O)CO[C@@H]1C[C@@H]2O [paclitaxel]
antitumor effect (ATP amount in the cell and number of spheroids): shows an antitumor effect
